Laboratory results reported in ChEMBL document CHEMBL3856283, “Structure-based design of ester compounds to inhibit MLL complex catalytic activity by targeting mixed lineage leukemia 1 (MLL1)-WDR5 interaction” (Bioorg Med Chem, 2016).

What was measured:
[1] = Antiproliferative activity against human MV4-11 cells harboring MLL-AF4 assessed as inhibition of cell viability after 72 hrs by CCK8-based colorimetric assay; format: functional; details: MV4-11, 72 h
[2] = Antiproliferative activity against human K562 cells harboring BCR-ABL assessed as inhibition of cell viability after 72 hrs by CCK8-based colorimetric assay; format: functional; details: K562, 72 h
[3] = Antiproliferative activity against human MV4-11 cells harboring MLL-AF4 after 7 days by CellTiter-Glo luminescent cell viability Assay; format: functional, cell-based; details: MV4-11, 168 h
[4] = target: T1, WD repeat-containing protein 5 (Homo sapiens, UniProt P61964); assay: Inhibition of C-terminal 5-FAM-ARTEVHLRKS binding to WDR5 (unknown origin) by fluorescence polarization assay
[5] = Permeability of the compound after 4 hrs by PAMPA; format: ADME; details: read-out: permeability
[6] = target: T1, WD repeat-containing protein 5; assay: Inhibition of N-terminal FITC-GSARAEVHLRKS binding to WDR5 (unknown origin) by fluorescence polarization assay
[7] = target: MLL1/ASH2L/RBBP5/WDR5 complex (Homo sapiens, UniProt P61964+Q03164+Q15291+Q9UBL3); assay: Inhibition of recombinant MLL1 (unknown origin) interaction with recombinant ASH2L/RBBP5/WDR5 (unknown origin) assessed as decrease in histone methylation after 60 mins by Alpha Screen assay; format: protein-complex assay
K562 = assay: Selectivity ratio of IC50 for human K562 cells harboring BCR-ABL to IC50 for human MV4-11 cells harboring MLL-AF4; format: functional

In the case of CCC(CC)(NC(=O)C(C)C)C(=O)N[C@@H](CCCNC(=N)N)C(=O)NC1(C(=O)NC(c2ccc(F)cc2)c2ccc(F)cc2)CCCC1, the IC50 [1] is reported as 20.7 µM, the IC50 [2] is reported as 37.8 µM and the IC50 [3] is reported as 25 µM.
Work on Cc1c(F)c([N+](=O)[O-])cc(C(=O)Nc2cc(C(=O)OC3CCCCC3)ccc2N2CCN(C)CC2)c1Cl yielded an IC50 [4] of over 0.02 µM.
For CC(C)OC(=O)c1ccc(N2CCN(C)CC2)c(NC(=O)c2ccc(F)c([N+](=O)[O-])c2)c1, the IC50 [4] was 1.17 µM, the IC50 [1] was 13.3 µM and the Papp at 4 h [5] was 61.4 ×10⁻⁶ cm/s. For the same compound, the IC50 [2] was 58 µM.
Work on Cc1c(F)ccc(C(=O)Nc2cc(C(=O)OC(C)C)ccc2N2CCN(C)CC2)c1Cl yielded an IC50 [4] of 0.264 µM, an IC50 [1] of 57.1 µM and a Papp at 4 h [5] of 49.8 ×10⁻⁶ cm/s. For the same compound, the IC50 [2] was over 100 µM.
For CN1CCN(c2ccc(C(=O)Oc3ccccc3)cc2NC(=O)c2ccc(F)c([N+](=O)[O-])c2)CC1, the IC50 [4] was 0.483 µM, the IC50 [1] was 10.8 µM and the Papp at 4 h [5] was 60 ×10⁻⁶ cm/s. For the same compound, the IC50 [2] was 11.6 µM.
With COC(=O)c1ccc(N2CCN(C)CC2)c(NC(=O)c2cccc(OC)c2)c1 the Kd [6] was 3 µM.
For CN1CCN(c2ccc(C(=O)Oc3ccccc3)cc2NC(=O)c2ccc(F)c(N)c2)CC1, the IC50 [4] was over 20 µM.
Compound COC(=O)c1ccc(N2CCN(C)CC2)c(NC(=O)c2cc(N)c(F)c(C)c2Cl)c1 has an IC50 [7] of 4.6 µM, an IC50 [4] of 0.0465 µM and an IC50 [1] of over 100 µM. For the same compound, the Papp at 4 h [5] was 52.9 ×10⁻⁶ cm/s and the IC50 [2] was over 100 µM.
Compound Cc1c(F)ccc(C(=O)Nc2cc(C(=O)Oc3ccccc3)ccc2N2CCN(C)CC2)c1Cl has an IC50 [4] of 0.162 µM, an IC50 [1] of 45.2 µM and a Papp at 4 h [5] of 48 ×10⁻⁶ cm/s. It also gave an IC50 [2] of 53.9 µM.
CCOC(=O)c1ccc(N2CCN(C)CC2)c(NC(=O)c2ccc(F)c(C)c2Cl)c1 showed an IC50 [4] of 0.284 µM, an IC50 [1] of 49.8 µM and a Papp at 4 h [5] of 44.9 ×10⁻⁶ cm/s. It also gave an IC50 [2] of 90.7 µM.
For CN1CCN(c2ccc(C(=O)OC3CCCCC3)cc2NC(=O)c2ccc(F)c([N+](=O)[O-])c2)CC1, the IC50 [4] was over 20 µM.
Compound CCOC(=O)c1ccc(N2CCN(C)CC2)c(NC(=O)c2ccc(F)c([N+](=O)[O-])c2)c1 has an IC50 [4] of over 0.02 µM.
Work on Cc1c(F)ccc(C(=O)Nc2cc(C(=O)O)ccc2N2CCN(C)CC2)c1Cl yielded an IC50 [4] of over 20 µM.
With COC(=O)c1ccc(N2CCN(C)CC2)c(NC(=O)c2ccc(F)c(N)c2)c1 the IC50 [4] was over 0.02 µM.
COC(=O)c1ccc(N2CCN(C)CC2)c(NC(=O)c2ccc(F)c(C)c2Cl)c1 gave an IC50 [4] of 0.433 µM, an IC50 [1] of over 100 µM and a Papp at 4 h [5] of 59.8 ×10⁻⁶ cm/s. The IC50 [2] was over 100 µM.
Compound CC(C)OC(=O)c1ccc(N2CCN(C)CC2)c(NC(=O)c2ccc(F)c(N)c2)c1 has an IC50 [4] of over 0.02 µM.
For COC(=O)c1ccc(N2CCN(C)CC2)c(NC(=O)c2ccc(F)c([N+](=O)[O-])c2)c1, the IC50 [4] was 0.454 µM, the IC50 [1] was 4.7 µM and the “Ratio IC50” value (K562) was 10. It also gave a Papp at 4 h [5] of 52.4 ×10⁻⁶ cm/s and an IC50 [2] of 57.1 µM.
For Cc1c(F)ccc(C(=O)Nc2cc(C(=O)OC3CCCCC3)ccc2N2CCN(C)CC2)c1Cl, the IC50 [4] was over 20 µM.
CN1CCN(c2ccc(C(=O)OC3CCCCC3)cc2NC(=O)c2ccc(F)c(N)c2)CC1 showed an IC50 [4] of over 0.02 µM.
For Cc1c(F)c(N)cc(C(=O)Nc2cc(C(=O)Oc3ccccc3)ccc2N2CCN(C)CC2)c1Cl, the IC50 [7] was 5.4 µM, the IC50 [4] was 0.0264 µM and the IC50 [1] was 66.5 µM. For the same compound, the Papp at 4 h [5] was 38 ×10⁻⁶ cm/s and the IC50 [2] was 33.4 µM.
Cc1c(F)c(N)cc(C(=O)Nc2cc(C(=O)OC3CCCCC3)ccc2N2CCN(C)CC2)c1Cl showed an IC50 [4] of 0.0588 µM, an IC50 [1] of over 100 µM and a Papp at 4 h [5] of 5.6 ×10⁻⁶ cm/s. It also gave an IC50 [2] of over 100 µM.
CN1CCN(c2ccc(C(=O)O)cc2NC(=O)c2ccc(F)c([N+](=O)[O-])c2)CC1 gave an IC50 [4] of over 0.02 µM.
COC(=O)c1ccc(N2CCN(C)CC2)c(NC(=O)c2cc([N+](=O)[O-])c(F)c(C)c2Cl)c1 gave an IC50 [4] of 0.245 µM, an IC50 [1] of 3.4 µM and a Papp at 4 h [5] of 74.8 ×10⁻⁶ cm/s. The IC50 [2] was 17.2 µM.
Compound Cc1c(F)c([N+](=O)[O-])cc(C(=O)Nc2cc(C(=O)Oc3ccccc3)ccc2N2CCN(C)CC2)c1Cl has an IC50 [4] of 0.812 µM, an IC50 [1] of 9.9 µM and a Papp at 4 h [5] of 56.3 ×10⁻⁶ cm/s. It also gave an IC50 [2] of 15.7 µM.
With CC(C)NCC(O)COc1cccc2ccccc12 (stereo unspecified) [PROPRANOLOL] the Papp at 4 h [5] was 98.7 ×10⁻⁶ cm/s.
